Reference: patent US20160318987A1 (MEDIMMUNE LIMITED, priority 2013, published 2016)
“Also recorded” adds a separate entry of the source. Where a SMILES comes first, the peptide text is derived from it. [ ]: non-standard residue; d: D form. The star is where a group is joined. Palmitoyl = CCCCCCCCCCCCCCCC(=O)*; αMeF = C[C@](N)(Cc1ccccc1)C(=O)O; αMeK = C[C@](N)(CCCCN)C(=O)O; αMeV = CC(C)[C@](C)(N)C(=O)O; Aib = CC(C)(N)C(=O)O

Legend:
hGIP-R = target: T1, hGIP-R (Homo sapiens, UniProt P48546); test: cAMP functional assay, cells expressing human GIP receptor (primary assay); format: cell-based; details: n = 2
T1 construct: expressed in transfected cells
T1 sequence (P48546 22-466): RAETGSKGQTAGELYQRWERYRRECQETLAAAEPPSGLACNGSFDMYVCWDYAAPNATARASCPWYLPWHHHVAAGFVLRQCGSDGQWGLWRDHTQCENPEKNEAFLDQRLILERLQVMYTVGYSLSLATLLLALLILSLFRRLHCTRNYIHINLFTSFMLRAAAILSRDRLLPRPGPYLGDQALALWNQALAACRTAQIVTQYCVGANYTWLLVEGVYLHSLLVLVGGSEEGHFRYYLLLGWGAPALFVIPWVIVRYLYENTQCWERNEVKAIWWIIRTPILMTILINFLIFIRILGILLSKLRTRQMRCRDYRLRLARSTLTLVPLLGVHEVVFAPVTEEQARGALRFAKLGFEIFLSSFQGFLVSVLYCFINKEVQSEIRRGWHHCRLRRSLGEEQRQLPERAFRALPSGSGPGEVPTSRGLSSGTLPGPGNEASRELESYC

hGLP-1R = target: T2, hGLP-1R (Homo sapiens, UniProt P43220); test: cAMP functional assay, cells expressing human GLP-1 receptor (primary assay); format: cell-based; details: n = 2
T2 construct: expressed in transfected cells

Chymotrypsin (rhCTRC) [1] = target: T3, Chymotrypsin (rhCTRC) (Homo sapiens, UniProt Q99895); test: chymotrypsin stability study (LC/MS); format: in vitro ADME; details: for Chymotrypsin cleavage/liability (Discussion / Description): Table 2 description
T3 construct: purchased R&D Systems 6907-SE-010
T3 sequence (Q99895 30-268): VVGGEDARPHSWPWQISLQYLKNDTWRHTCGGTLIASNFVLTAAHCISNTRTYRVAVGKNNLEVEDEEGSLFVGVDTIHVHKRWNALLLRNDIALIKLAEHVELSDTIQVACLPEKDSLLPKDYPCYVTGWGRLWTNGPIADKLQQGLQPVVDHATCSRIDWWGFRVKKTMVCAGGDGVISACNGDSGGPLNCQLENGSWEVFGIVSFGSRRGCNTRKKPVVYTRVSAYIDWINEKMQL
Description: (§1) Peptides for evaluation were prepared to a concentration of 1.0 mg/mL solutions in either pure water, sterile saline for injection (0.9% w/v NaCl/water) or 1× PBS (Dulbecco). 100 μL (100 μg/mL peptide) of these solutions was added to 900 μL of each protease solution. Additional experiments were performed examining protein degradation during exposure to serum and gastric fluid. For serum studies, peptides were incubated with 50% female Sprague-Dawley strain rat serum (SD rat serum). For gastric fluid studies, peptides were incubated 1:1 (volume:volume), fresh rat gastric fluid.
(§2) The peptide and enzyme (or serum or gastric fluid) were co-incubated in a temperature regulated water bath at 37° C. for the duration of the experiment. During each experiment 100 μL aliquots (10 μg peptide) of the incubated peptide-enzyme mixture were withdrawn periodically, quenched by addition of an equal volume of 5% TFA (v/v) in 1:1 water/acetonitrile to arrest proteolytic activity, and analyzed by liquid chromatography-mass spectrometry (LC/MS): Agilent Polaris C8-A column (4.6×100 mm, 3 micron) using a linear binary gradient of 10-90% MeCN (0.1% TFA v/v) in water (0.1% TFA v/v) over 30 minutes at 1.5 mL min^−1 at ambient temperature. Analytes were detected by both UV absorption at 210 nm and ionization using a Waters 3100 mass detector (ESI^+ mode). New peptidic species (fragments) derived from enzymatic cleavage of peptides were analyzed post-process, and their molecular masses were used to identify the precise cleavage position (highlighting the scissile bond in each case).

hGluc-R = target: T4, hGluc-R (Homo sapiens, UniProt P47871); test: cAMP functional assay, cells expressing human glucagon receptor (primary assay); format: cell-based; details: n = 2
T4 construct: expressed in transfected cells

[2] = target: T5, trypsin from porcine pancreas (Sus scrofa, UniProt P00761); test: trypsin stability study (LC/MS); format: in vitro ADME
T5 construct: purchased Sigma P7409; host or cells: porcine pancreas
Description: as §1, §2

Neprilysin (rhNEP) = target: T6, Neprilysin (rhNEP) (Homo sapiens, UniProt P08473); test: neprilysin stability study (LC/MS); format: in vitro ADME; details: Table 2 description
T6 construct: purchased R&D Systems 1182-ZNC-010
Description: as §1, §2

[3] = tested on: DPP-IV, Neprilysin, Chymotrypsin, Trypsin, Pepsin; test: enzyme resistance, protease panel (Table 2 description); format: in vitro ADME
Description: as §1, §2

[4] = gastric fluid stability study (LC/MS); format: in vitro ADME, rat
Description: as §1, §2

Chymotrypsin (rhCTRC) [5] = test: 1.0 μg rhCTRC in 900 μL assay buffer: 50 mM Tris, 10 mM CaCl2, 150 mM NaCl, 1 mM HCl, pH 7.8; details: 37° C., up to over 60 hours
Trypsin = test: 1 mg/mL lyophilized trypsin from porcine pancreas in 50 mM Tris, 10 mM CaCl2, 150 mM NaCl, 1 mM HCl, pH 7.8; details: 37° C., up to over 18 hours
[6] = tested on: Neprilysin (Neutral endopeptidase, rhNEP); test: 1.0 μg rhNEP in 900 μL assay buffer: 50 mM Tris, 50 mM NaCl, 50 mM NaHCO3, pH 8.3; details: 37° C., up to 240 hours

T2 sequence (P43220 24-463): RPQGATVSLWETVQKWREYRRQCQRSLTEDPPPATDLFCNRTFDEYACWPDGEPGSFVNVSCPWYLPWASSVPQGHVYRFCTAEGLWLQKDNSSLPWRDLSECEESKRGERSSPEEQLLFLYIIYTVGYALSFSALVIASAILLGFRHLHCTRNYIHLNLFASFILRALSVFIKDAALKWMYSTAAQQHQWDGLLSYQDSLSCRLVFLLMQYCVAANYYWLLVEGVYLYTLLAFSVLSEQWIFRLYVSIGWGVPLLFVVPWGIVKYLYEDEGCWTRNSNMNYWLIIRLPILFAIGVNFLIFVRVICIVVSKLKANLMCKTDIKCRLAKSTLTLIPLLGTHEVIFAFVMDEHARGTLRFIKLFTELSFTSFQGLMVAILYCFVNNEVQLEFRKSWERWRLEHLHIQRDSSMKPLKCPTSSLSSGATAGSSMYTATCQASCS
T4 sequence (P47871 26-477): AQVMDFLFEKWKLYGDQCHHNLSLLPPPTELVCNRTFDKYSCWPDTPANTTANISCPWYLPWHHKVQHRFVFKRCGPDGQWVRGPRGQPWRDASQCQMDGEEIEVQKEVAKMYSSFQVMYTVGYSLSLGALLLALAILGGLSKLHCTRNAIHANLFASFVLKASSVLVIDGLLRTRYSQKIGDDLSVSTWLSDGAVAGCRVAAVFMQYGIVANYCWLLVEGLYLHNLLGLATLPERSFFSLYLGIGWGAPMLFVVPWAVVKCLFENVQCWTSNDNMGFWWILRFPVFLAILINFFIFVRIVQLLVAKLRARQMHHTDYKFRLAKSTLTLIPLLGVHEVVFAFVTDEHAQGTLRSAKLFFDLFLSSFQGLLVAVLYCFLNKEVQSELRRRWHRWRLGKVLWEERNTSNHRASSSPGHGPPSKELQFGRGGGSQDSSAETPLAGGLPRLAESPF
T5 sequence (P00761 9-231): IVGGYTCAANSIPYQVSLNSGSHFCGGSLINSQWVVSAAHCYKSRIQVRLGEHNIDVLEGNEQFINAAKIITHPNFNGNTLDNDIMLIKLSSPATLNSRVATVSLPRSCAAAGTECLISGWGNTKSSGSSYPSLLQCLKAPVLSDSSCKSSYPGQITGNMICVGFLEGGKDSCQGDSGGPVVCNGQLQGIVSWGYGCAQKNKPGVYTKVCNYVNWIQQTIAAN
T6 sequence (P08473 52-750 limits assumed): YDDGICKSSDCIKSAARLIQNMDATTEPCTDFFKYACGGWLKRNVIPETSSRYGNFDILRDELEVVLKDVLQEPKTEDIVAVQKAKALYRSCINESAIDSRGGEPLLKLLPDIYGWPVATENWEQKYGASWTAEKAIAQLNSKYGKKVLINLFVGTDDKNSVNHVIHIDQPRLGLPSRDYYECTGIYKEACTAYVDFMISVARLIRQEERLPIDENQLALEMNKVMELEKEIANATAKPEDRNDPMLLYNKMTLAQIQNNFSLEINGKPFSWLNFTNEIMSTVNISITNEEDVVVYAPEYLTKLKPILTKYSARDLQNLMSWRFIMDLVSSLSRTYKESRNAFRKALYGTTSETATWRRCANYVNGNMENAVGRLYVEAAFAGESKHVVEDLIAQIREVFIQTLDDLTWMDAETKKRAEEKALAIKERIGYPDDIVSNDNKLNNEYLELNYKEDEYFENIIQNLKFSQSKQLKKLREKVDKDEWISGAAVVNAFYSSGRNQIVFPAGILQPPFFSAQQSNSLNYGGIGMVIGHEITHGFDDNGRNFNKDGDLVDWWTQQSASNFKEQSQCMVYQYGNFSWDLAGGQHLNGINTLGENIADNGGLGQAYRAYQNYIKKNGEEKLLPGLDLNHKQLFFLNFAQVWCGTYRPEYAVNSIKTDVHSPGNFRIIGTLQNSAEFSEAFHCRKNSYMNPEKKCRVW

Q: Which results are given for `CC[C@H](C)[C@H](NC(=O)[C@](C)(Cc1ccccc1)NC(=O)[C@H](CCC(=O)O)NC(=O)[C@H](CCCCN)NC(=O)[C@H](C)NC(=O)[C@H](C)NC(=O)[C@H](CCC(N)=O)NC(=O)CNC(=O)[C@H](CCC(=O)O)NC(=O)[C@H](CC(C)C)NC(=O)[C@](C)(Cc1ccccc1)NC(=O)[C@H](CO)NC(=O)[C@H](CO)NC(=O)[C@@H](NC(=O)[C@H](CC(=O)O)NC(=O)[C@H](CO)NC(=O)[C@@H](NC(=O)[C@](C)(Cc1ccccc1)NC(=O)[C@H](CO)NC(=O)CNC(=O)[C@H](CCC(=O)O)NC(=O)C(C)(C)NC(=O)[C@@H](N)Cc1c[nH]cn1)[C@@H](C)O)C(C)C)C(=O)N[C@@H](C)C(=O)N[C@@](C)(Cc1ccccc1)C(=O)N[C@@H](CC(C)C)C(=O)N[C@](C)(C(=O)N[C@@H](CCCCN)C(=O)NCC(=O)N[C@@H](CCCNC(=N)N)C(N)=O)C(C)C` [SEQ ID NO: 41, H-(Aib)^2-EG-(S)^5-(α-MeF)^6-TSDV^10 SS-(α-MeF)^13-LE^15 GQAAK^20 E-(α-MeF)^22-IA-(α-MeF)^25 L-(α-MeV)^27-KGR^30] (H-H[Aib]EGS[αMeF]TSDVSS[αMeF]LEGQAAKE[αMeF]IA[αMeF]L[αMeV]KGR-NH2)?
A: EC50 (hGIP-R): 102 nM; EC50 (hGLP-1R): 0.0546 nM; Chymotrypsin cleavage/liability (Discussion / Description) (Chymotrypsin (rhCTRC) [1]): MeVal^27 overcomes

Q: Which results are given for `CC[C@H](C)[C@H](NC(=O)[C@](C)(Cc1ccccc1)NC(=O)[C@H](CCC(=O)O)NC(=O)[C@](C)(CCCCN)NC(=O)[C@H](C)NC(=O)[C@H](C)NC(=O)[C@H](CCC(N)=O)NC(=O)CNC(=O)[C@H](CCC(=O)O)NC(=O)[C@H](CC(C)C)NC(=O)[C@](C)(Cc1ccccc1)NC(=O)[C@H](CO)NC(=O)[C@H](CO)NC(=O)[C@@H](NC(=O)[C@H](CC(=O)O)NC(=O)[C@H](CO)NC(=O)[C@@H](NC(=O)[C@](C)(Cc1ccccc1)NC(=O)[C@H](CO)NC(=O)CNC(=O)[C@H](CCC(=O)O)NC(=O)C(C)(C)NC(=O)[C@@H](N)Cc1c[nH]cn1)[C@@H](C)O)C(C)C)C(=O)N[C@@H](C)C(=O)N[C@@](C)(Cc1ccccc1)C(=O)N[C@@H](CC(C)C)C(=O)N[C@H](C(=O)N[C@@](C)(CCCCN)C(=O)NCC(=O)NCC(N)=O)C(C)C` [SEQ ID NO: 46, H-(Aib)^2-EG-(S)^5-(α-MeF)^6-TSDV^10 SS-(α-MeF)^13-LE^15 GQAA-(α-MeK)^20 E-(α-MeF)^22-IA-(α-MeF)^25 LV-(α-MeK)^28-G-(G)^30] (H-H[Aib]EGS[αMeF]TSDVSS[αMeF]LEGQAA[αMeK]E[αMeF]IA[αMeF]LV[αMeK]GG-NH2)?
A: EC50 (hGIP-R): 103 nM; EC50 (hGluc-R): 103 nM; Trypsin resistance/susceptibility (Discussion / Description) ([2]; Table 2 description): resistance, maintaining; EC50 (hGLP-1R): 0.0141 nM; Neprilysin resistance (Discussion / Description) (Neprilysin (rhNEP)): resistance, maintaining

Q: With `CC[C@H](C)[C@H](NC(=O)[C@](C)(Cc1ccccc1)NC(=O)[C@H](CCC(=O)O)NC(=O)[C@](C)(CCCCN)NC(=O)[C@H](C)NC(=O)[C@H](C)NC(=O)[C@H](CCC(N)=O)NC(=O)CNC(=O)[C@H](CCC(=O)O)NC(=O)[C@H](CC(C)C)NC(=O)[C@](C)(Cc1ccccc1)NC(=O)[C@H](CO)NC(=O)[C@H](CO)NC(=O)[C@@H](NC(=O)[C@H](CC(=O)O)NC(=O)[C@H](CO)NC(=O)[C@@H](NC(=O)[C@](C)(Cc1ccccc1)NC(=O)[C@H](CO)NC(=O)CNC(=O)[C@H](CCC(=O)O)NC(=O)C(C)(C)NC(=O)[C@@H](N)Cc1c[nH]cn1)[C@@H](C)O)C(C)C)C(=O)N[C@@H](C)C(=O)N[C@@](C)(Cc1ccccc1)C(=O)N[C@H](C(=O)N[C@H](C(=O)N[C@@](C)(CCCCN)C(=O)NCC(=O)NCC(N)=O)C(C)C)C(C)C` [SEQ ID NO: 51, H-(Aib)^2-EG-(S)^5-(α-MeF)^6-TSDV^10 SS-(α-MeF)^13-LE^15 GQAA-(α-MeK)^20 E-(α-MeF)^22-IA-(α-MeF)^25-(V)^26-V-(α-MeK)^28-G-(G)^30] (H-H[Aib]EGS[αMeF]TSDVSS[αMeF]LEGQAA[αMeK]E[αMeF]IA[αMeF]VV[αMeK]GG-NH2) as the compound, how does the EC50 (hGIP-R) read?
A: 104 nM

Q: What about the EC50 (hGluc-R) of the same compound?
A: 104 nM

Q: And the duration of stability ([2]; trypsin, 37° C.)?
A: over 18 hours

Q: And the EC50 (hGLP-1R)?
A: 0.0219 nM

Q: What about the “Chymotrypsin cleavage/liability (Discussion / Description)” value (Chymotrypsin (rhCTRC) [1]) of the same compound?
A: overcoming Chymotrypsin

Q: And the “duration of stability, no major cleavage products” value (Chymotrypsin (rhCTRC) [1]; chymotrypsin, 37° C.)?
A: over 60 hours

Q: Which EC50 (hGIP-R) does the source give for `CCCCCCCCCCCCCCCC(=O)NCCCC[C@H](NC(=O)CNC(=O)CNC(=O)[C@](C)(CCCCN)NC(=O)[C@@H](NC(=O)[C@@H](NC(=O)[C@](C)(Cc1ccccc1)NC(=O)[C@H](C)NC(=O)[C@@H](NC(=O)[C@](C)(Cc1ccccc1)NC(=O)[C@H](CCC(=O)O)NC(=O)[C@](C)(CCCCN)NC(=O)[C@H](C)NC(=O)[C@H](C)NC(=O)[C@H](CCC(N)=O)NC(=O)CNC(=O)[C@H](CCC(=O)O)NC(=O)[C@H](CC(C)C)NC(=O)[C@](C)(Cc1ccccc1)NC(=O)[C@H](CO)NC(=O)[C@H](CO)NC(=O)[C@@H](NC(=O)[C@H](CC(=O)O)NC(=O)[C@H](CO)NC(=O)[C@@H](NC(=O)[C@](C)(Cc1ccccc1)NC(=O)[C@H](CO)NC(=O)CNC(=O)[C@H](CCC(=O)O)NC(=O)C(C)(C)NC(=O)[C@@H](N)Cc1c[nH]cn1)[C@@H](C)O)C(C)C)[C@@H](C)CC)C(C)C)C(C)C)C(N)=O` [SEQ ID NO: 52, H-(Aib)^2-EG-(S)^5-(α-MeF)^6-TSDV^10 SS-(α-MeF)^13-LE^15 GQAA-(α-MeK)^20 E-(α-MeF)^22-IA-(α-MeF)^25-(V)^26-V-(α-MeK)^28-G-(G)^30-K(Ε-Palm)] (H-H[Aib]EGS[αMeF]TSDVSS[αMeF]LEGQAA[αMeK]E[αMeF]IA[αMeF]VV[αMeK]GGK(Palmitoyl)-NH2) here?
A: 93.1 nM

Q: What about the EC50 (hGluc-R) of the same compound?
A: 93.1 nM

Q: What about the EC50 (hGLP-1R) of the same compound?
A: 0.41 nM

Q: And the “enzyme resistance (DPP-IV, Neprilysin, Chymotrypsin, Trypsin, Pepsin)” value [3]?
A: excellent enzyme resistance

Q: And the “stability relative to Liraglutide” value ([4]; rat gastric fluid 1:1)?
A: significantly exceeds

Q: What about the “stability relative to lipidated comparator SEQ ID NO: 5” value ([4]; rat gastric fluid 1:1) of the same compound?
A: significantly exceeds

Q: And the “spectrum over the time course” value ([4]; rat gastric fluid, zoomed spectra)?
A: virtually unchanged spectrum

Q: With “H-(Aib)^2-EG-(S)^5-(α-MeF)^6-TSDV^10 SS-(α-MeF)^13-LE^15 GQAA-(α-MeK)^20 E-(α-MeF)^22-IA-(α-MeF)^25-(V)^26-V-(α-MeK)^28-G-(G)30” as the compound, how does the not cleaved (Chymotrypsin (rhCTRC) [5]) read?
A: stability for over 60 hours, with no major cleavage products observed

Q: And the not cleaved (Trypsin)?
A: significantly extended stability for over 18 hours

Q: What does the source list for “H-(Aib)^2-EGT^5 FTSDV^10 SSYLE^15 GQAAK^20 EFIAW^25 LVKGR^30”?
A: cleaved bond [6]: T5-Phe6; also recorded: S12-Tyr13; also recorded: E21-Phe22; also recorded: A24-Trp25; cleaved bond (Trypsin): Lys20-E21, by 90 minutes; also recorded: Lys28-G29, by 90 minutes
